From patent publication US20170319552A1, “ATROPISOMERS OF TRIAZOLE DERIVATIVE” (ARDEA BIOSCIENCES, INC., priority 2016, published 2017)
Where two headings read alike, the source gives them in different places.

How the values were obtained:
[1] = Atropisomer interconversion, thermal challenge in aqueous solvent (dilute sodium bicarbonate); assay type: physicochemical
Protocol: (§1) The individual atropisomers of Compound (I), atropisomer 1 and atropisomer 2 (elution order from normal-phase chiral chromatography) were exposed to various conditions, including thermal challenge in both organic and aqueous media and exposure to simulated biological conditions, to ascertain whether they readily interconvert.
Atropisomer 1 was dissolved in dilute aqueous sodium bicarbonate solution. Atropisomer 2 was dissolved in dilute aqueous sodium bicarbonate solution. […] Samples of the resulting solutions were exposed to room temperature (rt), 60° C., and 100° C. for four days. After four days, the samples were concentrated to dryness (SpeedVac evaporator—DNA120, property H001630), redissolved in acetonitrile and analyzed by high performance liquid chromatography (AGMS02 Agilent 1100) on a normal phase amylose-based chiral column (ChiralPak IA-3, 3 μm, 100×4.6 mm, column 244), using isocratic elution and UV detection at 226 nm (see example 1). […] Sample chromatograms at t0, 60° C., and 100° C. after four days, are depicted in FIG. 3A, FIG. 3B and FIG. 3C respectively.

[2] = target: T1, human URAT1 transporter (Homo sapiens, UniProt Q96S37); experiment: HEK293 hURAT1 stable cell-line uric acid uptake assay; assay type: cell-based; settings: from IC50 values of table 5
T1 sequence (Q96S37 1-553): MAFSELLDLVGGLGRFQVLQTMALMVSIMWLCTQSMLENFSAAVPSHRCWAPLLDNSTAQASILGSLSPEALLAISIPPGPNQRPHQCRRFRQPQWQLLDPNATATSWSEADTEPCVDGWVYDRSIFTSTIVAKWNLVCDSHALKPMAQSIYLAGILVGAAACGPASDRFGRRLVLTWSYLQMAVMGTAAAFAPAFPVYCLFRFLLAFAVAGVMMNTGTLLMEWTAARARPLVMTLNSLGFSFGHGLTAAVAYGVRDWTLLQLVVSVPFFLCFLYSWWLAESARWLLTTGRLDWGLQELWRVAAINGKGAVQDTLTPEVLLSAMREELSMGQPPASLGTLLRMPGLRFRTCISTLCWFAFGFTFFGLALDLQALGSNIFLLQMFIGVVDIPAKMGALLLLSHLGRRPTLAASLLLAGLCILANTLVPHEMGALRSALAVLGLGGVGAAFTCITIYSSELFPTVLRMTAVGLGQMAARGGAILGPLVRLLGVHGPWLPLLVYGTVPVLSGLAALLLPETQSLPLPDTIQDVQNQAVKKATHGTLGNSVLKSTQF
Source text: Generation and Screening of HEK293 Stable Cell Lines—HEK293 human embryonic kidney cells (ATCC #CRL-1573, Manassas, Va.) were propagated in EMEM tissue culture medium as described by ATCC in an atmosphere of 5% CO2 and 95% air. HEK293 cells were transfected with the expression plasmids described above (pCMV6-neo URAT1 or pCMV6-neo OAT4) using Lipofectamine 2000 (Invitrogen, Carlsbad, Calif.), according to the manufacturer's instructions. The lipid/DNA transfection mixture was removed after five hours on the cells and fresh growth medium was added. After another 24 hr the cells were split into 10 cm plates. The next day G418 (Gibco, Carlsbad, Calif.) selection agent was added to the growth medium at a final concentration of 0.5 mg/ml. Fresh G418-containing medium was added every three days until drug-resistant colonies were obtained and also when the majority of mock-transfected cells were dead. […]
HEK293 hURAT 1 Stable Cell-Line Uric Acid Uptake Assay—Cells were seeded onto 96-well poly-D-lysine coated tissue culture plates at a density of 1.25×10^5 cells per well and grown at 37° C. overnight. […] Cells were lysed by adding 150 μl of MicroScint 20 scintillation fluid (PerkinElmer) to each well and radioactivity was counted the following day using a Beckman TopCount plate reader.
Calculation—The IC50 was calculated using Sigmoidal Dose-Response Model using XLFIT(IDBS, Alameda, Calif.).

[3] = In vivo human metabolism, plasma and urine pharmacokinetics after single oral dose of racemic Compound (I)
Protocol: Plasma samples were collected prior to dosing (within 30 minutes before dosing) and at the following timepoints: 0.5, 1, 1.5, 2, 3, 4, 5, 6, 8, 10, 12, and 24 hours postdose. Urine was also collected. […] The supernatant was diluted with injection solvent and analyzed by HPLC with tandem mass spectrometry (LC/MS/MS). […] The calibration curves were linear over the concentration range between 5.00 ng/mL and 2000 ng/mL with a lower limit of quantification (LLOQ) of 5.00 ng/mL.
Using the above data, the following plasma pharmacokinetic parameters were calculated using validated Phoenix WinNonlin, version 6.3 (Pharsight Corporation, Mountain View, Calif.) and are shown (geometric mean 95% CI) in tables 11, 12, and 13 below.
• Cmax: Maximum observed concentration (μg/mL) • Tmax: Time of occurrence of maximum observed concentration (hr) • AUC0-24: Area under plasma concentration-vs-time curve, from time 0 to 24 hours postdose (μg·hr/mL) • C24: Concentration 24 hours post dose (μg/mL) • t1/2: Apparent terminal half-life (hr)

[4] = In vitro metabolism, incubations with human liver microsomes; assay type: in vitro ADME
Protocol: Human liver microsomes (0.5 mg/mL; mixed gender, ultrapooled, BD Biosciences, catalog number 452117) were incubated at 37±1° C. in 0.2 mL (final volume) of incubation mixtures containing potassium phosphate buffer (100 mM, pH7.4), MgCl2 (3 mM), NADPH (1 mM), and the atropisomers (1, 10, or 50 μM) (all experiments performed in duplicate). Stock solutions of atropisomers were prepared with DMSO at 100 mM. The final concentration of DMSO in the incubation was at or less than 0.05%. Reactions were initiated by addition of NADPH solution and terminated at predetermined time point (30 min) by addition of stop reagent (300 μL chilled acetonitrile containing 0.1 μM of 7-hydroxycoumarin as an internal standard). After incubation, microsomal proteins were precipitated by centrifugation at 3300×g for 15 min at 4° C. Supernatant fractions were analyzed by LC-MS/MS.
HPLC mass spectrometer system: An API4000 triple quadrupole mass spectrometer equipped with electrospray ionization ion source was used for quantitation and operated in positive mode. The HPLC system consisted of a CTC Analytics PAL autosampler, an Agilent 1100 series degasser (G1379A), and an Agilent 1100 series binary pump (G1312A). […]
The formation of M3, M3c, M4 and M6 from each atropisomer in liver microsomal and recombinant CYP incubations was determined, based on the peak area ratio of analyte over internal standard (IS)

[5] = Atropisomer interconversion, thermal challenge in organic solvent (acetonitrile); assay type: physicochemical
Protocol: as §1
Samples of each separate atropisomers were held at 60° C. for four days and then analyzed by high performance liquid chromatography (AGMS02 Agilent 1100) on a normal phase amylose-based chiral column (ChiralPak IA-3, 3 μm, 100×4.6 mm, column 244), using isocratic elution and UV detection at 226 nm (see example 1).

[6] = Solubility in water; assay type: physicochemical
[7] = Plasma Concentration (Mean), single oral 400 mg racemic Compound (I), human
[8] = Urine PK Parameters (Geometric mean, CI 95%), single oral 400 mg racemic Compound (I), human
[9] = plasma, geometric mean, single oral 400 mg racemic Compound (I), human

SMILES: O=C(O)CSc1nnc(Br)n1-c1ccc(C2CC2)c2ccccc12 (single isomer, unassigned) [Atropisomer 2, (+)-2-(5-bromo-4-(4-cyclopropylnaphthalen-1-yl)-4H-1,2,4-triazol-3-ylthio)acetic acid]
- % Atropisomer 1 ([1]; 60° C. 4 days): 0.4%
- % Atropisomer 2 ([1]; 60° C. 4 days): 99.6%
- % Atropisomer 1 ([1]; 100° C. 4 days): 0.6%
- % Atropisomer 2 ([1]; 100° C. 4 days): 99.4%
- % Atropisomer 1 ([1]; rt, 4 days): 0.4%
- % Atropisomer 2 ([1]; rt, 4 days): 99.6%
- % Atropisomer 1 ([1]; t0 (control)): 0.4%
- % Atropisomer 2 ([1]; t0 (control)): 99.6%
- Greater inhibition of URAT1 than atropisomer 1 [2]: approximately 4 fold
- Mean plasma concentration ([3]; 0.5 hr postdose, single oral 400 mg Compound (I) racemic mixture, adult male subjects): 108 ng/mL
- Mean plasma concentration ([3]; 1 hr postdose, single oral 400 mg Compound (I) racemic mixture, adult male subjects): 2573 ng/mL
- Mean plasma concentration ([3]; 1.5 hr postdose, single oral 400 mg Compound (I) racemic mixture, adult male subjects): 4975 ng/mL
- Mean plasma concentration ([3]; 2 hr postdose, single oral 400 mg Compound (I) racemic mixture, adult male subjects): 5765 ng/mL
- Mean plasma concentration ([3]; 3 hr postdose, single oral 400 mg Compound (I) racemic mixture, adult male subjects): 6921 ng/mL
- Mean plasma concentration ([3]; 4 hr postdose, single oral 400 mg Compound (I) racemic mixture, adult male subjects): 5577 ng/mL
- Mean plasma concentration ([3]; 5 hr postdose, single oral 400 mg Compound (I) racemic mixture, adult male subjects): 4314 ng/mL
- Mean plasma concentration ([3]; 6 hr postdose, single oral 400 mg Compound (I) racemic mixture, adult male subjects): 2322 ng/mL
- Mean plasma concentration ([3]; 8 hr postdose, single oral 400 mg Compound (I) racemic mixture, adult male subjects): 918 ng/mL
- Mean plasma concentration ([3]; 10 hr postdose, single oral 400 mg Compound (I) racemic mixture, adult male subjects): 495 ng/mL
- Mean plasma concentration ([3]; 12 hr postdose, single oral 400 mg Compound (I) racemic mixture, adult male subjects): 309 ng/mL
- Mean plasma concentration ([3]; 24 hr postdose, single oral 400 mg Compound (I) racemic mixture, adult male subjects): 63 ng/mL
- AUC0-24 [3, 7]: 33800 ng·h/mL
- Cmax [3, 7]: 8200 ng/mL
- Ae0-24 [3, 8]: 101 mg
- CLR0-24 [3, 8]: 51.6 mL/min
- AUC0-24: Area under plasma concentration-vs-time curve, from time 0 to 24 hours postdose [3, 9]: 32.7 µg·h/mL
- C24 h: Concentration 24 hours post dose [3, 9]: 50.8 ng/mL
- Cmax: Maximum observed concentration [3, 9]: 7920 ng/mL
- t1/2: Apparent terminal half-life [3, 9]: 4.67 h
- Tmax: Time of occurrence of maximum observed concentration ([3]; plasma, single oral 400 mg racemic Compound (I), human): 3.00 h
- Mean plasma concentration ([3]; time 0 hr (prior to dosing), single oral 400 mg Compound (I) racemic mixture, adult male subjects): 0 ng/mL
- M3c formation [4]: only trace levels
- % Atropisomer 1 ([5]; acetonitrile 0.25 mg/mL, t0): 1.0%
- % Atropisomer 2 ([5]; acetonitrile 0.25 mg/mL, t0): 99.0%
- % Atropisomer 1 ([5]; acetonitrile, 60° C. 4 days): 1.0%
- % Atropisomer 2 ([5]; acetonitrile, 60° C. 4 days): 99.0%

SMILES: O=C(O)CSc1nnc(Br)n1-c1ccc(C2CC2)c2ccccc12 (racemic) [Compound (I), 2-(5-bromo-4-(4-cyclopropylnaphthalen-1-yl)-4H-1,2,4-triazol-3-ylthio)acetic acid]
- concentration at 0.5 h ([3]; male, human, plasma, po, 400 mg, 0.5 hr postdose, single oral 400 mg Compound (I) racemic mixture, adult male subjects): 157 ng/mL
- concentration at 1 h ([3]; male, human, plasma, po, 400 mg, 1 hr postdose, single oral 400 mg Compound (I) racemic mixture, adult male subjects): 3900 ng/mL
- concentration at 1.5 h ([3]; male, human, plasma, po, 400 mg, 1.5 hr postdose, single oral 400 mg Compound (I) racemic mixture, adult male subjects): 7860 ng/mL
- concentration at 2 h ([3]; male, human, plasma, po, 400 mg, 2 hr postdose, single oral 400 mg Compound (I) racemic mixture, adult male subjects): 9380 ng/mL
- concentration at 3 hr ([3]; male, human, plasma, po, 400 mg, 3 hr postdose, single oral 400 mg Compound (I) racemic mixture, adult male subjects): 11400 ng/mL
- concentration at 4 hr ([3]; male, human, plasma, po, 400 mg, 4 hr postdose, single oral 400 mg Compound (I) racemic mixture, adult male subjects): 9080 ng/mL
- concentration at 5 hr ([3]; male, human, plasma, po, 400 mg, 5 hr postdose, single oral 400 mg Compound (I) racemic mixture, adult male subjects): 6980 ng/mL
- concentration at 6 hr ([3]; male, human, plasma, po, 400 mg, 6 hr postdose, single oral 400 mg Compound (I) racemic mixture, adult male subjects): 3810 ng/mL
- concentration at 8 hr ([3]; male, human, plasma, po, 400 mg, 8 hr postdose, single oral 400 mg Compound (I) racemic mixture, adult male subjects): 1530 ng/mL
- concentration at 10 hr ([3]; male, human, plasma, po, 400 mg, 10 hr postdose, single oral 400 mg Compound (I) racemic mixture, adult male subjects): 815 ng/mL
- concentration at 12 hr ([3]; male, human, plasma, po, 400 mg, 12 hr postdose, single oral 400 mg Compound (I) racemic mixture, adult male subjects): 503 ng/mL
- concentration at 24 h ([3]; male, human, plasma, po, 400 mg, 24 hr postdose, single oral 400 mg Compound (I) racemic mixture, adult male subjects): 84 ng/mL
- AUC(0-t) ([3]; male, human, plasma, po, 400 mg, Plasma Concentration (Mean), single oral 400 mg racemic Compound (I), human, read-out: AUC0-24): 54900 ng·h/mL
- Cmax ([3]; male, human, plasma, po, 400 mg, Plasma Concentration (Mean), single oral 400 mg racemic Compound (I), human, read-out: Cmax): 13500 ng/mL
- Cmax ([3]; male, human, plasma, po, 400 mg, plasma, geometric mean, single oral 400 mg racemic Compound (I), human, read-out: Cmax: Maximum observed concentration): 12800 ng/mL
- half-life ([3]; male, human, plasma, po, 400 mg, plasma, geometric mean, single oral 400 mg racemic Compound (I), human, read-out: t1/2: Apparent terminal half-life (converted)): 4.18 h
- concentration at 0 h ([3]; male, human, plasma, po, 400 mg, time 0 hr (prior to dosing), single oral 400 mg Compound (I) racemic mixture, adult male subjects): 0 ng/mL
- Tmax ([3]; male, human, plasma, po, 400 mg, read-out: Tmax: Time of occurrence of maximum observed concentration): 3 h
- AUC0-24: Area under plasma concentration-vs-time curve, from time 0 to 24 hours postdose [3, 9]: 52.9 µg·h/mL
- Solubility in water [6]: low
